Test results published in US8957074B2 (Novartis AG, priority 2010, dated 2015).
Read-outs that look alike come from different tables or passages of the source.

Columns and labels:
[1] = test system: phosphorylation of pRb at the Ser780 site in JeKo-1 mantle cell lymphoma cells; test: CDK4 cellular assay: ELISA of pRb phosphorylation at Ser780 in JeKo-1 cells; format: cell-based
CDK4/cyclin D1 = CDK4/cyclin D1 (Homo sapiens (Human), UniProt P11802); test: CDK4/cyclin D1 enzymatic activity assay (TR-FRET, phosphorylation of pRb at Ser780); format: biochemical
Outline: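 Phosphorylation at pRb Ser780, detected by TR-FRET, gave IC50s and kinetics. Enzyme: baculovirus/Sf21-expressed human CDK4/cyclin D1. ATP at 3 μM initiated the reaction; EDTA (pH 8.0) stopped it after 60 min at 22° C.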

CDK1/cyclin B = CDK1/cyclin B (Homo sapiens (Human), UniProt P06493); test: CDK1/cyclin B enzymatic activity assay (IMAP-FP); format: biochemical
Description: CDK1/Cyclin B Enzymatic Activity Assay
A 384-well microtiter IMAP-FP™ (Molecular Devices Trade Mark Technology) endpoint assay was used for CDK1/cyclin B kinase activity measurements. The same assay was used for IC50 determination of small molecule inhibitors.

[2] = Homo sapiens, JeKo-1, JeKo-1 cells, p-pRb % inhibition adjusted with total pRb levels, read-out: Normalized cellular ppRb inhibition IC50
[3] = Homo sapiens, JeKo-1, JeKo-1 cells, p-pRb Ser780 ELISA, non-normalized, read-out: Cellular ppRb inhibition IC50
[4] = 0.3 nM CDK4/cyclin D1, 150 nM biotin-pRb (773-924), 3 μM ATP, 60 min at 22° C., read-out: Biochemical CDK4 enzyme IC50
[5] = Homo sapiens, JeKo-1 cells, p-pRb % inhibition adjusted with total pRb levels, read-out: Normalized cellular ppRb inhibition IC50
[6] = Homo sapiens, JeKo-1 cells, p-pRb Ser780 ELISA, non-normalized, read-out: Cellular ppRb inhibition IC50
[7] = […] CDK1/cyclin B, 100 nM Tamra Histone-H1 peptide, 20 μM ATP, 120 min at room temperature, read-out: Biochemical CDK1 enzyme IC50
[8] = 0.25 nM CDK1/cyclin B, 100 nM Tamra Histone-H1 peptide, 20 μM ATP, 120 min at room temperature, read-out: Biochemical CDK1 enzyme IC50
[9] = Homo sapiens, JeKo-1, read-out: Cellular ppRb inhibition IC50

Chain of CDK1/cyclin B (P06493 whole entry, species assumed): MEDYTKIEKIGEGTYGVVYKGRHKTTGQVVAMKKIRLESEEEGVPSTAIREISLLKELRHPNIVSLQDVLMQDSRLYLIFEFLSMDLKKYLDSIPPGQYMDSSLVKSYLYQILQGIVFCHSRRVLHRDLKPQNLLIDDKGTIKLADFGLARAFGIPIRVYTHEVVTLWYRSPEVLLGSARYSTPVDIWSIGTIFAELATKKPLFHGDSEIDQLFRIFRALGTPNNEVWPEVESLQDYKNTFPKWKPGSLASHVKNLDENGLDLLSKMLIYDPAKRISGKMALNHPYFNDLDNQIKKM
Chain of CDK1/cyclin B (P14635 whole entry partner, species assumed): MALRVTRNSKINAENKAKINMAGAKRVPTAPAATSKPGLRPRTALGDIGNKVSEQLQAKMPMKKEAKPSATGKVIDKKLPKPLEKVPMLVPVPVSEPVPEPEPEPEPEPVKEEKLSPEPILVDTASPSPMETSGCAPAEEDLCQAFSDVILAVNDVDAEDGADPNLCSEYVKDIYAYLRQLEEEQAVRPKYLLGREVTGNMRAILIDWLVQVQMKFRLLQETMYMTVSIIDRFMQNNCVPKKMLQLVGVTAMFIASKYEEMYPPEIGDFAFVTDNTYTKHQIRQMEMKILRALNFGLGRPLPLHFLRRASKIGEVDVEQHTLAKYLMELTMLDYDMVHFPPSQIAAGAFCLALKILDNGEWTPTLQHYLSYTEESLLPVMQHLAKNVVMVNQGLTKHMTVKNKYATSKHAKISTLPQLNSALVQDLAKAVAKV
Chain of CDK4/cyclin D1 (P11802 whole entry): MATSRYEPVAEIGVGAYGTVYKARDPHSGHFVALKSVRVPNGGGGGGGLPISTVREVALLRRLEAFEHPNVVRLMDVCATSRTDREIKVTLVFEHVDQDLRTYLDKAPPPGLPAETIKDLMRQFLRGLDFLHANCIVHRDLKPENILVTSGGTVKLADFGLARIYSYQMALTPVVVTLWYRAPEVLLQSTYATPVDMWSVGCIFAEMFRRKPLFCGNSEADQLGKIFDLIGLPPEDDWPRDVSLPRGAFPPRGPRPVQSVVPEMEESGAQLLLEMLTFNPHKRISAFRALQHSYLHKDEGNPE
Chain of CDK4/cyclin D1 (P24385 whole entry partner): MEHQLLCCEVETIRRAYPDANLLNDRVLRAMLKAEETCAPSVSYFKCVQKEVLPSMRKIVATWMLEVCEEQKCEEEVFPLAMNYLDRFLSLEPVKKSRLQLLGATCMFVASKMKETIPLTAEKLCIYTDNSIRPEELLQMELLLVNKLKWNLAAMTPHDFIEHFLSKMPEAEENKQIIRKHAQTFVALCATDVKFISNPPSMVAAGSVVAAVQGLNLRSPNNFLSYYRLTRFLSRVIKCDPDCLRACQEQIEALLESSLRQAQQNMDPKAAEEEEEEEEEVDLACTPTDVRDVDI

| SMILES | IC50 [1, 2] | IC50 [1, 3] | IC50 (CDK4/cyclin D1; [4]) | IC50 [1, 5] | IC50 [1, 6] | IC50 (CDK1/cyclin B; [7]) | IC50 (CDK1/cyclin B; [8]) | other results |
| --- | --- | --- | --- | --- | --- | --- | --- | --- |
| [2H]C([2H])([2H])N1C2CCC1CN(C(=O)c1ccc(Nc3ncc4cc(C(=O)N(C)C)n(C5CCCC5)c4n3)nc1)C2 [Example 63, 7-Cyclopentyl-2-[5-(8-methyl-d3-3,8-diaza-bicyclo[3.2.1]octane-3-carbonyl)-pyridin-2-ylamino]-7H-pyrrolo[2,3-d]pyrimidine-6-carboxylic acid dimethylamide] | 40 to 242 nM | 34 to 78 nM | 11 to 24 nM | – | – | – | – | IC50 (CDK1/cyclin B): > 15000 nM |
| CCOC(=O)N1C2CCC1CN(C(=O)c1ccc(Nc3ncc4cc(C(=O)N(C)C)n(C5CCCC5)c4n3)nc1)C2 [Example 64, 3-[6-(7-Cyclopentyl-6-dimethylcarbamoyl-7H-pyrrolo[2,3-d]pyrimidin-2-ylamino)-pyridine-3-carbonyl]-3,8-diaza-bicyclo[3.2.1]octane-8-carboxylic acid ethyl ester] | – | – | 72 to 179 nM | 771 to 2200 nM | 323 to 466 nM | > 15000 nM | – | – |
| CN(C)C(=O)c1cc2cnc(Nc3ccc(C(=O)N4CC5CCC(C4)N5)cn3)nc2n1C1CCCOC1 (stereo not drawn) [Example 65, 2-(5-(3,8-diazabicyclo[3.2.1]octane-3-carbonyl)pyridin-2-ylamino)-N,N-dimethyl-7-(tetrahydro-2H-pyran-3-yl)-7H-pyrrolo[2,3-d]pyrimidine-6-carboxamide] | – | – | 76 nM | 132 to 458 nM | 126 to 211 nM | > 15000 nM | – | – |
| CN(C)C(=O)c1cc2cnc(Nc3ccc(C(=O)N4CC5CCC(C4)N5)cn3)nc2n1C1CCCCC1 [Example 66, 7-Cyclohexyl-2-[5-(3,8-diaza-bicyclo[3.2.1]octane-3-carbonyl)-pyridin-2-ylamino]-7H-pyrrolo[2,3-d]pyrimidine-6-carboxylic acid dimethylamide] | 41 nM | 38 nM | 4 to 7 nM | – | – | > 15000 nM | – | – |
| CN(C)C(=O)c1cc2cnc(Nc3ccc(C(=O)N4CC5CC4CN5)cn3)nc2n1C1CCCCC1 (stereo not drawn) [Example 67, 7-Cyclohexyl-2-[5-(2,5-diaza-bicyclo[2.2.1]heptane-2-carbonyl)-pyridin-2-ylamino]-7H-pyrrolo[2,3-d]pyrimidine-6-carboxylic acid dimethylamide] | – | – | 3 nM | 54 nM | 51 nM | 10400 nM | – | – |
| CN(C)C(=O)c1cc2cnc(Nc3ccc(C(=O)N4CC5COCC(C4)N5)cn3)nc2n1C1CCCC1 [Example 70, 7-Cyclopentyl-2-[5-(3-oxa-7,9-diaza-bicyclo[3.3.1]nonane-7-carbonyl)-pyridin-2-ylamino]-7H-pyrrolo[2,3-d]pyrimidine-6-carboxylic acid dimethylamide] | – | – | 39 nM | 180 nM | 117 nM | > 15000 nM | – | – |
| CN(C)C(=O)c1cc2cnc(Nc3ccc(C(=O)N4CC5CCC(C4)N5)nn3)nc2n1C1CCCC1 [Example 73, 7-Cyclopentyl-2-[6-(3,8-diaza-bicyclo[3.2.1]octane-3-carbonyl)-pyridazin-3-ylamino]-7H-pyrrolo[2,3-d]pyrimidine-6-carboxylic acid dimethylamide] | – | – | – | – | – | > 15000 nM | – | IC50 ([1]; JeKo-1 cells, p-pRb % inhibition adjusted with total pRb levels, read-out: Normalized cellular ppRb inhibition IC50): 139 to 783 nM; IC50 ([1]; JeKo-1 cells, p-pRb Ser780 ELISA, non-normalized, read-out: Cellular ppRb inhibition IC50): 75 to 259 nM; IC50 (CDK4/cyclin D1; read-out: Biochemical CDK4 enzyme IC50, 0.3 nM CDK4/cyclin D1, 150 nM biotin-pRb (773-924), 3 μM ATP, 60 min at 22° C.): 45 to 84 nM |
| CN(C)C(=O)c1cc2cnc(Nc3ccc(C(=O)N4CC5CCC(C4)O5)cn3)nc2n1C1CCCC1 [Example 74, 7-Cyclopentyl-2-[5-(8-oxa-3-aza-bicyclo[3.2.1]octane-3-carbonyl)-pyridin-2-ylamino]-7H-pyrrolo[2,3-d]pyrimidine-6-carboxylic acid dimethylamide] | 257 nM | 151 nM | 67 nM | – | – | – | > 15000 nM | – |
| CN(C)C(=O)c1cc2cnc(Nc3ccc(C(=O)N4CCC5COCC(C4)N5)cn3)nc2n1C1CCCC1 (stereo not drawn) [Example 75, 7-Cyclopentyl-2-[5-(8-oxa-3,10-diaza-bicyclo[4.3.1]decane-3-carbonyl)-pyridin-2-ylamino]-7H-pyrrolo[2,3-d]pyrimidine-6-carboxylic acid dimethylamide] | 525 nM | 81 nM | – | – | – | – | – | IC50 (CDK4/cyclin D1): 47 nM; IC50 (CDK1/cyclin B): > 15000 nM |
| CN(C)C(=O)c1cc2cnc(Nc3ccc(C(=O)N4CC5CCC(C4)N5)cn3)nc2n1C1C[C@H]2CC[C@@H]1C2 (stereo partly drawn) [Example 76, 7-(1R,2R,4S)-Bicyclo[2.2.1]hept-2-yl-2-[5-(3,8-diaza-bicyclo[3.2.1]octane-3-carbonyl)-pyridin-2-ylamino]-7H-pyrrolo[2,3-d]pyrimidine-6-carboxylic acid dimethylamide] | 216 nM | 160 nM | 21 nM | – | – | – | – | IC50 (CDK1/cyclin B): > 15000 nM |
| CN(C)C(=O)c1cc2cnc(Nc3ccc(C(=O)N4CC5CC[C@@H](C4)N5)cn3)nc2n1[C@H]1C[C@@H]2CC[C@H]1C2 [Example 77, 7-(1S,2S,4R)-Bicyclo[2.2.1]hept-2-yl-2-[5-(3,8-diaza-bicyclo[3.2.1]octane-3-carbonyl)-pyridin-2-ylamino]-7H-pyrrolo[2,3-d]pyrimidine-6-carboxylic acid dimethylamide] | 225 nM | 172 nM | 27 nM | – | – | – | – | IC50 (CDK1/cyclin B): > 15000 nM |
| CN(C)C(=O)c1cc2cnc(Nc3ccc(N4CC5CC5(N)C4)cn3)nc2n1C1CCCC1 (stereo not drawn) [Example 78, 2-[5-(1-Amino-3-aza-bicyclo[3.1.0]hex-3-yl)-pyridin-2-ylamino]-7-cyclopentyl-7H-pyrrolo[2,3-d]pyrimidine-6-carboxylic acid dimethylamide] | – | – | 76 nM | – | – | – | > 15000 nM | IC50 [1, 9]: 59 nM |
| CN(C)C(=O)c1cc2cnc(Nc3ccc(N4CC5CCC(CC4=O)N5)nn3)nc2n1C1CCCC1 (stereo not drawn) [Example 79, 7-Cyclopentyl-2-[6-(4-oxo-3,9-diaza-bicyclo[4.2.1]non-3-yl)pyridazin-3-ylamino]-7H-pyrrolo[2,3-d]pyrimidine-6-carboxylic acid dimethylamide] | 117 nM | 30 nM | – | – | – | – | > 15000 nM | IC50 (CDK4/cyclin D1): 42 nM |
| CN(C)C(=O)c1cc2cnc(Nc3ccc(N4CC5CCC(N5)C4=O)cn3)nc2n1C1CCCCCC1 (stereo not drawn) [Example 80, 7-Cycloheptyl-2-[5-(2-oxo-3,8-diaza-bicyclo[3.2.1]oct-3-yl)-pyridin-2-ylamino]-7H-pyrrolo[2,3-d]pyrimidine-6-carboxylic acid dimethylamide] | 74 to 474 nM | 51 to 320 nM | – | – | – | – | 14000 nM | IC50 (CDK4/cyclin D1): 12 to 14 nM |
| CN(C)C(=O)c1cc2cnc(Nc3ccc(N4CC5CNCC5C4=O)cn3)nc2n1C1CCCCCC1 (stereo not drawn) [Example 81, 7-Cycloheptyl-2-[5-(1-oxo-hexahydro-pyrrolo[3,4-c]pyrrol-2-yl)-pyridin-2-ylamino]-7H-pyrrolo[2,3-d]pyrimidine-6-carboxylic acid dimethylamide] | – | – | – | – | – | – | 3810 nM | IC50 [1, 9]: 3 nM; IC50 ([1]; Homo sapiens, JeKo-1, read-out: Normalized cellular ppRb inhibition IC50): 4 nM; IC50 (CDK4/cyclin D1): < 5 nM |
| CN(C)C(=O)c1cc2cnc(Nc3ccc(N4C[C@@H]5CNC[C@@H]5C4=O)cn3)nc2n1C1CCCCCC1 [Example 82, 7-cycloheptyl-N,N-dimethyl-2-(5-((3aS,6aR)-1-oxohexahydropyrrolo[3,4-c]pyrrol-2(1H)-yl)pyridin-2-ylamino)-7H-pyrrolo[2,3-d]pyrimidine-6-carboxamide] | – | – | 4 nM | 9 nM | 5 nM | 2660 nM | – | – |
| CN(C)C(=O)c1cc2cnc(Nc3ccc(N4C[C@H]5CNC[C@H]5C4=O)cn3)nc2n1C1CCCCCC1 [Example 83, 7-cycloheptyl-N,N-dimethyl-2-(5-((3aR,6aS)-1-oxohexahydropyrrolo[3,4-c]pyrrol-2(1H)-yl)pyridin-2-ylamino)-7H-pyrrolo[2,3-d]pyrimidine-6-carboxamide] | – | – | 3 nM | 9 nM | 5 nM | 5320 nM | – | – |
| CN(C)C(=O)c1cc2cnc(Nc3ccc(N4C[C@@H]5CNC[C@@H]5C4=O)cn3)nc2n1C1CCCC1 [Example 85, 7-cyclopentyl-N,N-dimethyl-2-(5-((3aS,6aR)-1-oxohexahydropyrrolo[3,4-c]pyrrol-2(1H)-yl)pyridin-2-ylamino)-7H-pyrrolo[2,3-d]pyrimidine-6-carboxamide] | 9 to 21 nM | 5 to 17 nM | 5 to 7 nM | – | – | – | 8980 to 11200 nM | – |
| CN(C)C(=O)c1cc2cnc(Nc3ccc(N4C[C@H]5CNC[C@H]5C4=O)cn3)nc2n1C1CCCC1 [Example 86, 7-cyclopentyl-N,N-dimethyl-2-(5-((3aR,6aS)-1-oxohexahydropyrrolo[3,4-c]pyrrol-2(1H)-yl)pyridin-2-ylamino)-7H-pyrrolo[2,3-d]pyrimidine-6-carboxamide] | 13 to 14 nM | 8 to 17 nM | 5 to 6 nM | – | – | 20600 nM | – | – |
